Data: PubChem BioAssay (NCI)
“And” between values parts separate entries of the source, which are not always exact repeats. Equal values may be shown once.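 Grown in 96-well plates, cells were treated for 48 hours with each compound at five concentrations. Insufficient inhibition: endpoint recorded as highest concentration tested. GI50 = concentration required for 50% inhibition of growth. TGI marks complete inhibition of growth.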

Assays:
Assay in all cases: NCI tumour cell line growth inhibition, 48 h
CAKI-1 renal = tested on: CAKI-1 renal
SW-620 colon = tested on: SW-620 colon
NCI-H460 lung = tested on: NCI-H460 lung
SK-MEL-2 melanoma = tested on: SK-MEL-2 melanoma
NCI-H522 lung = tested on: NCI-H522 lung
MOLT-4 leukemia = tested on: MOLT-4 leukemia
KM12 colon = tested on: KM12 colon
HCC-2998 colon = tested on: HCC-2998 colon
OVCAR-4 ovarian = tested on: OVCAR-4 ovarian
NCI-H23 lung = tested on: NCI-H23 lung

Row | SMILES | GI50 (CAKI-1 renal) | TGI (CAKI-1 renal) | GI50 (SW-620 colon) | TGI (SW-620 colon) | GI50 (NCI-H460 lung) | TGI (NCI-H460 lung) | GI50 (SK-MEL-2 melanoma) | TGI (SK-MEL-2 melanoma) | GI50 (NCI-H522 lung) | TGI (NCI-H522 lung) | GI50 (MOLT-4 leukemia) | TGI (MOLT-4 leukemia) | GI50 (KM12 colon) | TGI (KM12 colon) | GI50 (HCC-2998 colon) | TGI (HCC-2998 colon) | GI50 (OVCAR-4 ovarian) | TGI (OVCAR-4 ovarian) | TGI (NCI-H23 lung) | GI50 (NCI-H23 lung)
1 | C=CN(C)S(C)(=O)=O | > 100 µM | > 100 µM | > 100 µM | > 100 µM | > 100 µM | > 100 µM | > 100 µM | > 100 µM | > 100 µM | > 100 µM | > 100 µM | > 100 µM | > 100 µM | > 100 µM | > 100 µM | > 100 µM | > 100 µM | > 100 µM | – | –
2 | CC1=C[P+](Cc2ccccc2)(c2ccccc2)CC1 (stereo not drawn) | – | – | – | > 100 µM | – | > 100 µM | – | > 100 µM | – | > 100 µM | – | > 100 µM | – | > 100 µM | 97.7 µM and > 100 µM and 39.3 µM | > 100 µM | – | > 100 µM | > 100 µM | –
3 | O=C(NCC(O)CNC(=O)C(F)(F)F)C(F)(F)F | – | > 100 µM | – | > 100 µM | – | > 100 µM | – | – | – | > 100 µM | – | > 100 µM | – | > 100 µM | – | > 100 µM | – | > 100 µM | > 100 µM | –
4 | CC/C(=C(/c1ccc(O)cc1)c1ccc(OCCN2CCCCC2)cc1)c1ccc(OC)cc1 | – | – | 1.77 µM | 3.89 µM | 2.17 µM | 4.72 µM | 2.04 µM | 4.83 µM | 3.41 µM | 13.7 µM | 1.6 µM | 5.71 µM | 2.63 µM | 12.2 µM | 2.9 µM | 9.13 µM | 1.88 µM | 5.99 µM | 23.4 µM | 10.1 µM
5 | N#CC1=C(N)NC(=S)NC12Nc1ccccc1N2 | 19.8 µM | > 100 µM | 59.5 µM | > 100 µM | 28.7 µM | > 100 µM | 18.6 µM | > 100 µM | 20.8 µM | 80 µM | 22.2 µM | > 100 µM | 23.6 µM | > 100 µM | – | – | > 100 µM | > 100 µM | > 100 µM | 36.7 µM
6 | CSc1ncnc2c1ncn2C1OC(CO)C(O)OC1O (stereo not drawn) | – | > 51.7 µM | – | > 100 µM | – | 16 µM | – | 18.9 µM | – | > 100 µM | – | 30.1 µM | – | 36.8 µM | – | – | – | 96.3 µM | > 44 µM | –
7 | COC(=O)c1ccc(Cl)cc1NC(=O)C1CCCCC1 | – | > 100 µM | – | > 100 µM | – | – | – | > 100 µM | – | > 100 µM | – | > 100 µM | – | > 100 µM | – | > 100 µM | – | > 100 µM | > 100 µM | –
8 | Fc1cccc2c1cc1ccc3cccc4ccc2c1c34 | – | > 100 µM | – | > 100 µM | – | – | – | > 100 µM | – | > 100 µM | – | > 100 µM | – | > 100 µM | – | > 100 µM | – | > 100 µM | > 100 µM | –
9 | N#C/C(=C/Sc1ccccc1)C(=O)O | – | 79.5 µM | – | > 100 µM | – | > 100 µM | – | 72.3 µM | – | 23.4 µM | – | > 100 µM | – | 99.3 µM | – | – | – | > 100 µM | > 100 µM | –
10 | Cc1cn2c(/C=N/N=C(N)N)c(-c3cccnc3)nc2s1 | 8.07 µM | 22.4 µM | 11.5 µM | 35.2 µM | 14.7 µM | 76.6 µM | 18.7 µM | 45.5 µM | 12.1 µM | 39.6 µM | 3.66 µM | 38.6 µM | 1.58 µM | 7.21 µM | – | – | 15.7 µM | 29.6 µM | 25.2 µM | 11.9 µM
11 | OC1C2CCC1C1C3C=CC(C3)C21 (stereo not drawn) | – | > 100 µM | – | > 100 µM | – | > 100 µM | – | > 100 µM | – | > 100 µM | – | > 100 µM | – | > 100 µM | – | – | – | > 100 µM | > 100 µM | –
12 | Cc1cc2c(c3oc(C4(C)OC4C4OC4C)cc(=O)c13)C(=O)c1c(O)c(C3CC(C)(N(C)C)C(O)C(C)O3)cc(C3CC(N(C)C)C(O)C(C)O3)c1C2=O (stereo not drawn) | 0.000145 µM | – | 4.89e-05 µM and 0.000111 µM | – | < 1e-05 µM | – | – | – | – | – | 9.44e-05 µM and 0.000106 µM | – | 0.000894 µM and 0.000134 µM | 0.0419 µM and 0.00486 µM | – | 0.000891 µM | – | – | – | –
13 | CCCCN(CCCC)CCCn1c(=O)c2c3ccccc3n(C)c2n2nnc(-c3ccccc3)c12 | 49.8 µM | > 100 µM | 26.5 µM | > 100 µM | 41.2 µM | > 100 µM | > 100 µM | > 100 µM | – | – | 13.9 µM | > 100 µM | 34.3 µM | > 100 µM | 20.3 µM | > 100 µM | 17.6 µM | 83.9 µM | 62.6 µM | 13 µM
14 | O=C1c2ccccc2C(=O)N1C/C=C/CO | – | > 100 µM | – | > 100 µM | – | > 100 µM | – | > 100 µM | – | > 100 µM | – | > 100 µM | – | > 100 µM | – | > 100 µM | – | > 100 µM | – | –
15 | CC(=O)C1(N=Nc2ccc(S(N)(=O)=O)cc2)CCOC1=O (stereo not drawn) | – | > 100 µM | – | > 100 µM | – | > 100 µM | – | > 100 µM | – | > 100 µM | – | – | – | > 100 µM | – | – | – | > 100 µM | > 100 µM | –
16 | COc1ccc(-c2nc(N3CCN(C(=O)C4CCCCC4)CC3)c3c4c(sc3n2)CCCC4)cc1 | 60.6 µM | > 100 µM | > 100 µM | > 100 µM | > 100 µM | > 100 µM | – | – | 27.9 µM | 96.9 µM | > 100 µM | > 100 µM | > 100 µM | > 100 µM | > 100 µM | > 100 µM | > 100 µM | > 100 µM | > 100 µM | 63.1 µM
17 | S=c1nc(Cl)cc2[nH]c(Cl)cn12 | – | > 100 µM | – | > 100 µM | – | > 100 µM | – | > 100 µM | – | 6.22 µM | – | – | – | 33.9 µM | – | > 100 µM | – | 44.9 µM | 48.8 µM | –
18 | CCOC(=O)/C(=C(/C)NCC(C)C)c1cc(O)c(O)c2c(C)cc(=O)[nH]c12 | 5.17 µM | > 100 µM | 4.95 µM | > 100 µM | 4.32 µM | > 100 µM | 5.92 µM | > 100 µM | 3.02 µM | 51.6 µM | 3.8 µM | > 100 µM | 12.4 µM | > 100 µM | – | – | 2.62 µM | 50 µM | > 100 µM | 5.48 µM
